Experimental findings from US11299501B2 (BRISTOL-MYERS SQUIBB COMPANY, priority 2017, dated 2022) are described below.

Format in all cases: cell-based
One test deals with T1, human TLR7 (Homo sapiens, UniProt Q9NYK1).
T1 construct: host or cells: HEK-Blue cells
T1 sequence (Q9NYK1 27-1049): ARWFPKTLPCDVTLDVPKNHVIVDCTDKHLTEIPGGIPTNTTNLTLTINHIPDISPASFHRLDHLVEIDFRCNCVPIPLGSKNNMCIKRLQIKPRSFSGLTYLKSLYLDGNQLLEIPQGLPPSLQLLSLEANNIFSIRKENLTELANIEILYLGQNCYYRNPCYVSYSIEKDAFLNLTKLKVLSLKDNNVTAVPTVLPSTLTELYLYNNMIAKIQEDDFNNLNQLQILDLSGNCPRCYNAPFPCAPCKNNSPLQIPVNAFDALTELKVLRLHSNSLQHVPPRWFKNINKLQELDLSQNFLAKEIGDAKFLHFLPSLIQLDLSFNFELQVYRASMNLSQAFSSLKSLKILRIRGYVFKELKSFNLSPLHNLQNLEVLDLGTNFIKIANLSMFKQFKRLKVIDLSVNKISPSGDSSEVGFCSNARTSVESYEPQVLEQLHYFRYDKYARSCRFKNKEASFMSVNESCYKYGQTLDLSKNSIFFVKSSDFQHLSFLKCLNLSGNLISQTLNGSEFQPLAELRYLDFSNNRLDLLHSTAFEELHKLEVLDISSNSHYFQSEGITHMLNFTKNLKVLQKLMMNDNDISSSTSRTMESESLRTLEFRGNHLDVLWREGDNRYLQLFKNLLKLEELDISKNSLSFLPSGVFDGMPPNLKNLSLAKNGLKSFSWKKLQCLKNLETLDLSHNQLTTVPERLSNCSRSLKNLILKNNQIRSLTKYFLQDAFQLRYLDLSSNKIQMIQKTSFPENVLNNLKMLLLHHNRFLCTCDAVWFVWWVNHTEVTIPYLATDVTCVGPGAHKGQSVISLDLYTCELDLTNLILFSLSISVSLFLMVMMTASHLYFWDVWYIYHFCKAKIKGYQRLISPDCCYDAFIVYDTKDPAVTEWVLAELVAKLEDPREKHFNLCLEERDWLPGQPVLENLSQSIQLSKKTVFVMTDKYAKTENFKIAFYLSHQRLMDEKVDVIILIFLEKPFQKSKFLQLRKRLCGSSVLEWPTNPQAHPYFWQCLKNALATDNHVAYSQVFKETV
The test can be described thus: TLR7 inhibition reporter assay (HEK-Blue SEAP). To be noted: cells overexpressing human TLR7, SEAP reporter, stimulated with gardiquimod 7.5 μM, 22 hour incubation. Here is the method:
(§1) TLR7/8/9 Inhibition Reporter Assays
(§2) […] (Invivogen) overexpressing human TLR7, TLR8 or TLR9 receptors were used for screening inhibitors of these receptors using an inducible SEAP (secreted embryonic alkaline phosphatase) reporter gene under the control of the IFN-β minimal promoter fused to five NF-κB and AP-1-binding sites. Briefly, cells are seeded into Greiner 384 well plates (15000 cells per well for TLR7, 20,000 for TLR8 and 25,000 for TLR9) and then treated with test compounds in DMSO to yield a final dose response concentration range of 0.05 nM-50 μM. After a 30 minute compound pre-treatment at room temperature, the cells are then stimulated with a TLR7 ligand (gardiquimod at a final concentration of 7.5 μM). TLR8 ligand (R848 at a final concentration of 15.9 μM) or TLR9 ligand (ODN2006 at a final concentration of 5 nM) to activate NF-κB and AP-1 which induce the production of SEAP. After a 22 hour incubation at 37° C., 5% CO2, SEAP levels are determined with the addition of HEK-Blue™ Detection reagent (Invivogen), a cell culture medium that allows for detection of SEAP, according to manufacturer's specifications. The percent inhibition is determined as the % reduction in the HEK-Blue signal present in wells treated with agonist plus DMSO alone compared to wells treated with a known inhibitor.
Background: Reporter assays use an easily measured gene product as a stand-in for the process of interest.

The target of the next test is T2, human TLR8 (Homo sapiens, UniProt Q9NR97).
T2 construct: host or cells: HEK-Blue cells
T2 sequence (Q9NR97 27-1041): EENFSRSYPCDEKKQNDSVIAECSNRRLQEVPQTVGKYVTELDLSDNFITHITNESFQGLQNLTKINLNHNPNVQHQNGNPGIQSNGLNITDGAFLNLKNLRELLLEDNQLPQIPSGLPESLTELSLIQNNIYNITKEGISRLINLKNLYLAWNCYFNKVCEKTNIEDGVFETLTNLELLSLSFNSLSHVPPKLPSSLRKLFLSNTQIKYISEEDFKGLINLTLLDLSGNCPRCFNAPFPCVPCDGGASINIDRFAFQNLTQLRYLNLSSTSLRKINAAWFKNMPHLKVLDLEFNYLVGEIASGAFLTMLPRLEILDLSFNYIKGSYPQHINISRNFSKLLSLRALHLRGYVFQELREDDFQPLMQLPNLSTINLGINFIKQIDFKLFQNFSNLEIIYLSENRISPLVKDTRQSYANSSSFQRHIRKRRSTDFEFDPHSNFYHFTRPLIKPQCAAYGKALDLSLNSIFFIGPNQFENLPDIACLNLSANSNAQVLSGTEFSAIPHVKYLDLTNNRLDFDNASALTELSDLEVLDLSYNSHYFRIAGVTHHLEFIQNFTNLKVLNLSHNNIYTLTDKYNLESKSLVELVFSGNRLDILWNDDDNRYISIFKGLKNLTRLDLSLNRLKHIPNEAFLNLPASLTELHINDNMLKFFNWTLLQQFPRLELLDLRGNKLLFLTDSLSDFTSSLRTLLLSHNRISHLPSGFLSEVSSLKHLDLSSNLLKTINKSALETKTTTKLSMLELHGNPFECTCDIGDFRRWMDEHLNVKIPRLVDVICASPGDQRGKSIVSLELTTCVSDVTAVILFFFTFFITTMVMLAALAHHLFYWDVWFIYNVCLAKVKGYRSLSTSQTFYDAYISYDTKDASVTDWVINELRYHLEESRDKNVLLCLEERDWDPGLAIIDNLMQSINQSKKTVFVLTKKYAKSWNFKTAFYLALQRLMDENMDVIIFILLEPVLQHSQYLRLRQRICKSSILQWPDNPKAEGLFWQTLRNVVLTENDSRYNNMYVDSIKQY
The test can be described thus: TLR8 inhibition reporter assay (HEK-Blue SEAP). To be noted: cells overexpressing human TLR8, SEAP reporter, stimulated with R848 15.9 μM, 22 hour incubation. As to the method: as §1, §2

The target in the next test is T3, human TLR9 (Homo sapiens, UniProt Q9NR96).
T3 construct: host or cells: HEK-Blue cells
T3 sequence (Q9NR96 26-1032): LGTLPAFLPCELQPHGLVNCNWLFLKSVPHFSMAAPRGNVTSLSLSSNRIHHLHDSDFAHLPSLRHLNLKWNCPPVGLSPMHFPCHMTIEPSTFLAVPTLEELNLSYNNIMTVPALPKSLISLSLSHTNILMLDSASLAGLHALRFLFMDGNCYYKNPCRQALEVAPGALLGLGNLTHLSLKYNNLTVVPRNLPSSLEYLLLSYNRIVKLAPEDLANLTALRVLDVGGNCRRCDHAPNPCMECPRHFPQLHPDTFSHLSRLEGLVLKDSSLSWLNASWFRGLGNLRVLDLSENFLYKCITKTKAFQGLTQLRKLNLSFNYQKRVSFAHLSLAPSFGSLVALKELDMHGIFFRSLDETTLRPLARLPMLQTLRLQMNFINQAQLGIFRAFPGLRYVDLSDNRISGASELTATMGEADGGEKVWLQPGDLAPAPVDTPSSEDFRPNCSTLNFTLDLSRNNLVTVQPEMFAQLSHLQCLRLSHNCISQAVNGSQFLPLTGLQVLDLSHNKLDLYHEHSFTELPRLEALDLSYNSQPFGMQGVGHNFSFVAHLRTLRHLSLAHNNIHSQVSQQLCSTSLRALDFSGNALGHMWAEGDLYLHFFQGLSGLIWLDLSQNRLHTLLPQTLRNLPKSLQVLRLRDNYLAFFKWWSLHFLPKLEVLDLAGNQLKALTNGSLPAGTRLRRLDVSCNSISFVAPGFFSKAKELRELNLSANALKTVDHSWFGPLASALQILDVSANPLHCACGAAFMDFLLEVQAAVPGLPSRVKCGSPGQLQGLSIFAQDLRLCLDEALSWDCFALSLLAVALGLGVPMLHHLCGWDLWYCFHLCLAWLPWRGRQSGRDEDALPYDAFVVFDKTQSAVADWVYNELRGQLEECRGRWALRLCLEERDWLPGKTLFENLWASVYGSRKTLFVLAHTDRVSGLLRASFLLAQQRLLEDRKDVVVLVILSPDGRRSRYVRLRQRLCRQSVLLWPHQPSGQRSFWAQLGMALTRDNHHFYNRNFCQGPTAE
The test can be described thus: TLR9 inhibition reporter assay (HEK-Blue SEAP). The settings on record: cells overexpressing human TLR9, SEAP reporter, stimulated with ODN2006 5 nM, 22 hour incubation. Here is the method:
as §1, §2

By IC50 is commonly meant the midpoint of a concentration-inhibition curve. Higher therefore signals a need for much substance. With `Cc1cc(-c2[nH]c3cnc(C4CCN(C5COC5)CC4)nc3c2C(C)C)cn2ncnc12` [Example 24, 6-(7-isopropyl-2-(1-(oxetan-3-yl)piperidin-4-yl)-5H-pyrrolo[3,2-d]pyrimidin-6-yl)-8-methyl-[1,2,4]triazolo[1,5-a]pyridine], the half-maximal inhibitory concentration (IC50) is less than 0.1 µM on human TLR7, less than 0.1 µM at human TLR8 and 1 to 50 µM on human TLR9.

In the case of `CCc1c(-c2ccnc3[nH]ncc23)[nH]c2cnc(C3CCN(C4CCN(C(C)C)CC4)CC3)nc12` [Example 25, 4-(7-ethyl-2-(1′-isopropyl-[1,4′-bipiperidin]-4-yl)-5H-pyrrolo[3,2-d]pyrimidin-6-yl)-1H-pyrazolo[3,4-b]pyridine], the 50% inhibitory concentration (IC50) against human TLR7, at human TLR8 and at human TLR9 was 0.1 to 1 µM each time.

On to `CCc1c(-c2ccc(OC)c(OC)c2)[nH]c2cnc(C3CCN(C4CCN(C(C)C)CC4)CC3)nc12` [Example 26, 6-(3,4-dimethoxyphenyl)-7-ethyl-2-(1′-isopropyl-[1,4′-bipiperidin]-4-yl)-5H-pyrrolo[3,2-d]pyrimidine], for which the results for the IC50 at human TLR7, against human TLR8 and against human TLR9 were less than 0.1 µM, less than 0.1 µM and 0.1 to 1 µM, respectively.

As for `Cc1c(-c2[nH]c3cnc(C4CCN(CC(C)(C)O)CC4)nc3c2C(C)C)cn2ncnc2c1C` [Example 27, 1-(4-(6-(7,8-dimethyl-[1,2,4]triazolo[1,5-a]pyridin-6-yl)-7-isopropyl-5H-pyrrolo[3,2-d]pyrimidin-2-yl)piperidin-1-yl)-2-methylpropan-2-ol], the figures for the IC50 against human TLR7, against human TLR8 and against human TLR9 were less than 0.1 µM, less than 0.1 µM and 1 to 50 µM, respectively.

On to `Cc1c(-c2[nH]c3cnc(C4CCN(C(=O)CN(C)C)CC4)nc3c2C(C)C)cn2ncnc2c1C` [Example 28, 1-(4-(6-(7,8-dimethyl-[1,2,4]triazolo[1,5-a]pyridin-6-yl)-7-isopropyl-5H-pyrrolo[3,2-d]pyrimidin-2-yl)piperidin-1-yl)-2-(dimethylamino)ethan-1-one], for which the IC50 was less than 0.1 µM on human TLR7, less than 0.1 µM at human TLR8 and 1 to 50 µM against human TLR9.

With `Cc1cc(-c2[nH]c3cnc(C4CCN(CC(=O)N(C)C)CC4)nc3c2C(C)C)cn2ncnc12` [Example 29, 2-(4-(7-isopropyl-6-(8-methyl-[1,2,4]triazolo[1,5-a]pyridin-6-yl)-5H-pyrrolo[3,2-d]pyrimidin-2-yl)piperidin-1-yl)-N,N-dimethylacetantide], the values for the concentration for half-maximal inhibition (IC50) against human TLR7, on human TLR8 and against human TLR9 were less than 0.1 µM, less than 0.1 µM and 1 to 50 µM, respectively.

On to `CNC(=O)CN1CCC(c2ncc3[nH]c(-c4cc(C)c5ncnn5c4)c(C(C)C)c3n2)CC1` [Example 30, 2-(4-(7-isopropyl-6-(8-methyl-[1,2,4]triazolo[1,5-a]pyridin-6-yl)-5H-pyrrolo[3,2-d]pyrimidin-2-yl)piperidin-1-yl)-N-tnethylacetamide], for which the IC50 was less than 0.1 µM against human TLR7, less than 0.1 µM against human TLR8 and more than 50 µM on human TLR9.

As for `COc1cc(-c2[nH]c3cnc(C4CCN(CC(=O)N(C)C)CC4)nc3c2C(C)C)cn2ncnc12` [Example 31, 2-(4-(7-isopropyl-6-(8-methoxy-[1,2,4]triazolo[1,5-a]pyridin-6-yl)-5H-pyrrolo[3,2-d]pyrimidin-2-yl)piperidin-1-yl)-N,N-dimethylacetamide], the IC50 at human TLR7 was less than 0.1 µM; against human TLR8, less than 0.1 µM; on human TLR9, 1 to 50 µM.

On to `Cc1cc(-c2[nH]c3cnc(C4CCN(CC(=O)N(C)C)CC4)nc3c2C(C)C)cn(C)c1=O` [Example 32, 2-(4-(6-(1,5-dimethyl-6-oxo-1,6-dihydropyridin-3-yl)-7-isopropyl-5H-pyrrolo[3,2-d]pyrimidin-2-yl)piperidin-1-yl)-N,N-dimethylacetainide], for which the results for the half-inhibitory concentration (IC50) against human TLR7, on human TLR8 and at human TLR9 were less than 0.1 µM, less than 0.1 µM and 1 to 50 µM, respectively.

Consider `Cc1cc(-c2[nH]c3cnc(C4CCN(C(=O)CN(C)C)CC4)nc3c2C(C)C)cn(C)c1=O` [Example 33, 5-(2-(1-(dimethylglycyl)piperidin-4-yl)-7-isopropyl-5H-pyrrolo[3,2-d]pyrimidin-6-yl)-1,3-dimethylpyridin-2(1H)-one], for which the figures for the concentration for half-maximal inhibition (IC50) against human TLR7, against human TLR8 and at human TLR9 were less than 0.1 µM, 0.1 to 1 µM and 1 to 50 µM, respectively.
